{"source": "paper PMC10762035", "about": "“Molecular basis of human trace amine-associated receptor 1 activation” (Nature Communications, 2024)", "type_in_all_cases": "cell-based", "key": {"[1]": {"target": "T1, β2AR-Nterm-hTA1-F112^3.41W (CryoEM Construct) (Homo sapiens, UniProt Q96RJ0, F112W)", "T1 construct": "FLAG (N); 10xHis (N); TEV protease site (N); expressed in transfected cells; host or cells: HEK293T", "T1 sequence (Q96RJ0 with tags, fused parts or gaps F112W)": "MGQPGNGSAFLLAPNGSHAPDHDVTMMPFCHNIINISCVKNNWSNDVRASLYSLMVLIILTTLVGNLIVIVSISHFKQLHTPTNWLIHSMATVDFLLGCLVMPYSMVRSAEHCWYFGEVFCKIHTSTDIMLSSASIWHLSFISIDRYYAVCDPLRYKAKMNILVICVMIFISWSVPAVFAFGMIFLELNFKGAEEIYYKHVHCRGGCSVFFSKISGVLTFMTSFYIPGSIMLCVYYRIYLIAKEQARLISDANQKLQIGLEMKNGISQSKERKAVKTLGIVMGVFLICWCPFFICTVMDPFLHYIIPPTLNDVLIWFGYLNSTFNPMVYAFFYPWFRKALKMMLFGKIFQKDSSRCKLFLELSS", "test": "GloSensor cAMP accumulation assay, cryoEM construct;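 further: cells transiently co-transfected with the receptor construct and GloSensor cAMP biosensor, luminescence read after 30 min compound exposure at room temperature in the dark as cAMP accumulation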;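 on Normalized Luminescence Counts (N=2): normalized to the maximum response of β-PEA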"}, "hTA1 b2N": {"target": "T2, hTA1 b2N (Homo sapiens, UniProt Q96RJ0)", "T2 construct": "read by me as the first 25 residues of β2AR (N); expressed in transfected cells; host or cells: HEK293T", "T2 sequence (Q96RJ0 with tags, fused parts or gaps)": "as the sequence (Q96RJ0 with tags, fused parts or gaps F112W) above, with W137F counted along it", "test": "GloSensor cAMP accumulation assay, b2N construct", "conditions": "b2N; n=2; read-out: Span ± SEM (Emax normalized to β-PEA)"}, "hTA1 C88/178S": {"target": "T3, hTA1 C88/178S (Homo sapiens, UniProt Q96RJ0, C178S/C88S)", "T3 construct": "expressed in transfected cells; host or cells: HEK293T", "T3 sequence (Q96RJ0 1-339 C88S/C178S)": "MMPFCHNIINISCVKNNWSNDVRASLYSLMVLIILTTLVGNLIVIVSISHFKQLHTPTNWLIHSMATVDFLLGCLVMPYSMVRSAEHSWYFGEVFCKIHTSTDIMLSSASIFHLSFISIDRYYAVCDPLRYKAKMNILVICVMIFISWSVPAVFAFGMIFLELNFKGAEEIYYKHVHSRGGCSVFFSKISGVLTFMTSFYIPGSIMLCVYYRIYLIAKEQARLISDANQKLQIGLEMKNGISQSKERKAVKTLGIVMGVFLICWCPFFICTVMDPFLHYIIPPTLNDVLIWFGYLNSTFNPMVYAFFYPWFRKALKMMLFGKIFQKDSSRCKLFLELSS", "test": "GloSensor cAMP accumulation assay, C88S/C178S double mutant", "conditions": "for Normalized Luminescence Counts (N=2): log[Compound], single replicate values"}, "hTA1 S107C": {"target": "T4, hTA1 S107C (Homo sapiens, UniProt Q96RJ0, S107C)", "T4 construct": "expressed in transfected cells; host or cells: HEK293T", "T4 sequence (Q96RJ0 1-339 S107C)": "T3 sequence (Q96RJ0 1-339 C88S/C178S) with S88C, S107C, S178C", "test": "GloSensor cAMP accumulation assay, S107C mutant;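 further: cells transiently co-expressing receptor and GloSensor biosensor, luminescence read after 30 min agonist exposure at room temperature, concentration-response fitted by nonlinear regression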"}, "hTA1 T271A": {"target": "T5, hTA1 T271A (Homo sapiens, UniProt Q96RJ0, T271A)", "T5 construct": "expressed in transfected cells; host or cells: HEK293T", "T5 sequence (Q96RJ0 1-339 T271A)": "T3 sequence (Q96RJ0 1-339 C88S/C178S) with S88C, S178C, T271A", "test": "GloSensor cAMP accumulation assay, T271A mutant"}, "[2]": {"conditions": "Cryo EM Construct minus WT average"}, "[3]": {"conditions": "C88S, C178S, each row is one independent experiment, 3 replicates"}}, "note": "Substitutions are numbered along the chain they refer to. Where “and” joins values, the source holds several entries; their conditions need not be identical. Identical values can stand only once. Like-named read-outs stand apart in the source and are kept apart here.", "data": [{"smiles": "CCc1[nH]nc(C(=O)Nc2ccc([C@H]3CNCCO3)cc2)c1C", "note": "[ralmitaront]", "values": [{"measurement": "ΔEmax values (each mutant value - WT average), Mean", "setting": "[1]; [2]", "value": "72.2357 and 63.0743"}, {"measurement": "ΔpEC50 values (each mutant value - WT average), Mean", "setting": "[1]; [2]", "value": "-1.146 and -1.03"}, {"measurement": "Emax values, Mean", "setting": "[1]; Cryo EM Construct, mean of each independent experiment (3 replicates)", "value": "-1.146 and -1.03"}, {"measurement": "Normalized Luminescence Counts (N=2)", "setting": "[1]; CryoEM Construct, log[Compound], M = -5, single replicates", "value": "105.279 and 102.248 and 77.3142 and 99.3117"}, {"measurement": "Emax", "setting": "[1]; CryoEM Construct, n=2, read-out: Span ± SEM (Emax normalized to β-PEA)", "value": "107 ± 3.32", "unit": "%"}, {"measurement": "Emax", "setting": "hTA1 b2N", "value": "82.5 ± 4.39", "unit": "%"}, {"measurement": "ΔEmax values (each mutant value - WT average), Mean", "setting": "hTA1 C88/178S; [3]", "value": "18.4827 and 32.9242"}, {"measurement": "ΔpEC50 values (each mutant value - WT average), Mean", "setting": "hTA1 C88/178S; [3]", "value": "-0.118 and 0.09825"}, {"measurement": "Normalized Luminescence Counts (N=2)", "setting": "hTA1 C88/178S; C88S, C178S, M = -5", "value": "55.2389 and 58.8007 and 61.0622 and 66.9199 and 93.0497 and 63.144"}, {"measurement": "Normalized Luminescence Counts (N=2)", "setting": "hTA1 C88/178S; C88S, C178S, M = -5.522", "value": "59.988 and 60.3272 and 50.3202 and 55.743 and 72.6594 and 83.3832"}, {"measurement": "Normalized Luminescence Counts (N=2)", "setting": "hTA1 C88/178S; C88S, C178S, M = -6", "value": "50.4332 and 47.6629 and 57.5569 and 67.8262 and 71.7532 and 58.9149"}, {"measurement": "Normalized Luminescence Counts (N=2)", "setting": "hTA1 C88/178S; C88S, C178S, M = -6.522", "value": "36.7513 and 35.5075 and 46.8149 and 59.519 and 56.6493 and 50.3056"}, {"measurement": "Normalized Luminescence Counts (N=2)", "setting": "hTA1 C88/178S; C88S, C178S, M = -7", "value": "22.2779 and 25.1613 and 25.3874 and 33.9934 and 41.0922 and 21.3061"}, {"measurement": "Normalized Luminescence Counts (N=2)", "setting": "hTA1 C88/178S; C88S, C178S, M = -7.522", "value": "14.9281 and 10.2921 and 11.3663 and 21.004 and 25.2331 and 32.0299"}, {"measurement": "Normalized Luminescence Counts (N=2)", "setting": "hTA1 C88/178S; C88S, C178S, M = -8", "value": "4.13 and 3.564 and 4.525 and 7.562 and 10.4313 and 11.0354"}, {"measurement": "Normalized Luminescence Counts (N=2)", "setting": "hTA1 C88/178S; C88S, C178S, M = -8.522", "value": "1.1331 and 2.8292 and 0.7939 and 5.598 and 0.6137 and 2.8793"}, {"measurement": "Normalized Luminescence Counts (N=2)", "setting": "hTA1 C88/178S; C88S, C178S, M = -9", "value": "0.3981 and 0.4547 and 0.9635 and -0.2925 and -0.1415 and 0.7648"}, {"measurement": "Normalized Luminescence Counts (N=2)", "setting": "hTA1 C88/178S; C88S, C178S, M = -9.522", "value": "-0.2803 and 1.19 and 0.172 and -1.501 and -1.35 and -2.105"}, {"measurement": "Normalized Luminescence Counts (N=2)", "setting": "hTA1 C88/178S; C88S, C178S, M = -10", "value": "0.0589 and 1.359 and 0.002362 and -0.8967 and -0.2925 and -1.35"}, {"measurement": "Normalized Luminescence Counts (N=2)", "setting": "hTA1 C88/178S; C88S, C178S, M = -10.522", "value": "1.077 and 0.1154 and 0.002362 and -1.501 and -1.199 and -1.048"}, {"measurement": "Normalized Luminescence Counts (N=2)", "setting": "hTA1 C88/178S; C88S, C178S, M = -11", "value": "-0.2238 and 0.172 and 0.7373 and -1.35 and -0.1415 and -1.048"}, {"measurement": "Normalized Luminescence Counts (N=2)", "setting": "hTA1 C88/178S; C88S, C178S, M = -11.522", "value": "0.0589 and 0.7373 and 0.5112 and -2.105 and 0.7648 and -0.8967"}, {"measurement": "Normalized Luminescence Counts (N=2)", "setting": "hTA1 C88/178S; C88S, C178S, M = -12", "value": "0.5112 and 0.7939 and 5.317 and -0.4436 and -0.5946 and -1.048"}, {"measurement": "Normalized Luminescence Counts (N=2)", "setting": "hTA1 C88/178S; C88S, C178S, M = -12.522", "value": "0.7373 (2×) and 1.416 and -1.199 and -0.7456 and -2.105"}, {"measurement": "Emax values, Mean", "setting": "hTA1 C88/178S; C88S, C178S, normalized (β-PEA = 100), each row is one independent experiment, 3 replicates", "value": "58.5968 and 73.0383"}, {"measurement": "Emax", "setting": "hTA1 C88/178S; read-out: Span ± SEM (Emax normalized to β-PEA)", "value": "65.8 ± 7.22", "unit": "%"}, {"measurement": "ΔEmax values (each mutant value - WT average)", "setting": "hTA1 S107C; S107C mutant minus WT average", "value": 1.2358}, {"measurement": "Emax values, Mean", "setting": "hTA1 S107C; S107C mutant, β-PEA = 100, each line an independent experiment, 3 replicates", "value": 57.0471}, {"measurement": "Emax", "setting": "hTA1 S107C; S107C mutant, β-PEA = 100, each line an independent experiment, 3 replicates, read-out: Emax values (Mean)", "value": 41.3, "unit": "%"}, {"measurement": "Emax", "setting": "hTA1 S107C; S107C, n=2, read-out: Span ± SEM (Emax normalized to β-PEA)", "value": "49.2 ± 7.85", "unit": "%"}, {"measurement": "ΔpEC50 values (each mutant value - WT average), Mean", "setting": "hTA1 T271A; T271A mutant minus WT average, Figure 5B", "value": -0.01384}, {"measurement": "Emax values, Mean", "setting": "hTA1 T271A; T271A mutant, Figure 5B, β-PEA = 100, each row one independent experiment (3 replicates)", "value": 56.995}, {"measurement": "Emax", "setting": "hTA1 T271A; T271A mutant, Figure 5B, β-PEA = 100, each row one independent experiment (3 replicates), read-out: Emax values, Mean", "value": 65.2, "unit": "%"}, {"measurement": "Emax", "setting": "hTA1 T271A; T271A, n=2, read-out: Span ± SEM (Emax normalized to β-PEA)", "value": "61.1 ± 4.08", "unit": "%"}]}]}
